We go through 13 compounds from PubChem BioAssay (NCI).

Molecules are shown by their SMILES.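 Dose response: 5 concentrations. Exposure: 48 h. Format: 96-well plates. Endpoint: linear interpolation; highest concentration if not reached. TGI denotes the concentration required for complete inhibition of growth.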 Some results are limits rather than exact numbers.

Common to all, as to experiment: NCI-60 cell line screen, 48 h
Assay [1] relates to MCF7 breast.
The subject of assay [2] is SNB-19 CNS.
The subject of assay [3] is SK-MEL-5 melanoma.
Assay [4] deals with HT29 colon.
The subject of assay [5] is 786-0 renal.
For assay [6], the system named is HCT-15 colon.
For assay [7], the system named is SW-620 colon.
Assay [8] relates to COLO 205 colon.
The test system of assay [9] is SK-MEL-2 melanoma.
For assay [10], the system named is MDA-MB-435.
Assay [11] has as its system RPMI-8226 leukemia.
Assay [12] relates to EKVX NSCLC.
Assay [13] deals with MOLT-4 leukemia.
For assay [14], the system named is UACC-257 melanoma.
Assay [15] relates to RXF 393 renal.
The subject of assay [16] is NCI-H23 lung.
In assay [17] the test system is NCI-H522 lung.
Assay [18] relates to SF-295 CNS.
In assay [19] the test system is SF-268 CNS.
In assay [20] the test system is OVCAR-8 ovarian.

Regarding `O=C1C(N2CCN(c3ccccn3)CC2)=C(Cl)C(=O)c2ncccc21`, the TGI in assay [1] is 3.64 µM; in [2], more than 10 µM; in [3] it was 3.27 µM; in assay [4] it was more than 6.16 µM; in [5], 3.21 µM; in assay [6], 4.06 µM. The TGI in [7] was 2.78 µM; in assay [8], 3.49 µM; in [9], 4.67 µM; in assay [10], more than 5.27 µM; in [11], 1.87 µM; in assay [12] it was more than 10 µM. In addition, the TGI was 5.99 µM in [13]; more than 5.88 µM in assay [14]; 3.56 µM in assay [15]; 3.68 µM in assay [16]; 1.03 µM in assay [17]; more than 10 µM in assay [18]. Further, the TGI in assay [19] is more than 10 µM; in assay [20] it was more than 6.1 µM.

On to `COc1ccc(OC)c(-c2nc3n(c2/C=C2/C(=O)Nc4ccccc42)CCS3)c1`, for which the TGI in [1], in [2], in assay [3], in assay [4], in assay [5] and in assay [6] was more than 100 µM each time. Moreover, the TGI in assay [7] is more than 100 µM; in assay [8], more than 100 µM; in assay [9], 79 µM; in [10] it was 40 µM; in assay [11], more than 100 µM; in [12], more than 100 µM. In addition, the TGI was 78.2 µM in assay [13]; more than 100 µM in [14]; 81.3 µM in assay [15]; more than 100 µM in assay [16]; more than 100 µM in [17]; more than 100 µM in assay [18]. Further, the TGI in assay [19] and in assay [20] was more than 100 µM throughout.

`CC(CC[C@@H](O)C(C)(C)O)C1[C@@H](O)CC2(C)C3CC(O)C4C(C)(C)[C@@H](OC5OC(CO)C(O)C(O)C5O)CC[C@@]45C[C@@]35CC[C@]12C` (stereo not given in full): the TGI in assay [1], in assay [2], in [3], in assay [4], in assay [5] and in assay [6] was more than 10 µM throughout. Also, the TGI in [7], in assay [8], in assay [9], in [10], in [11] and in assay [12] was more than 10 µM each time. Also, the TGI in assay [13], in [14], in assay [15], in [16], in assay [17] and in [18] was more than 10 µM in each case. Also, the TGI in assay [19] and in assay [20] was more than 10 µM in each case.

Consider `CN1CCc2c3n(c4cc(Br)ccc24)[C@H](O)CCCC31` (stereo not given in full), for which the TGI in [1] was 3.24 µM; in assay [2], more than 10 µM; in assay [3] it was more than 8.72 µM; in [4] it was 3.28 µM; in assay [5], 3.08 µM; in assay [6] it was more than 5.77 µM. Moreover, the TGI is 3.47 µM in assay [7]; 3.24 µM in assay [8]; 1.7 µM in assay [9]; 3.27 µM in assay [10]; 5.36 µM in assay [11]; more than 10 µM in assay [12]. The TGI in assay [13] is 3.97 µM; in assay [14], 5.61 µM; in assay [15], 7.74 µM; in assay [16] it was more than 10 µM; in assay [17], 3.01 µM; in [18], 3.53 µM. The results for the TGI in assay [19] and in assay [20] were more than 10 µM and 3.43 µM, respectively.

Take `C=C[C@@]1(C)CC[C@@H]2[C@@]3(C1)O[C@H]3CC1[C@](C)(C(=O)OC)CCC[C@@]12C` (stereo not given in full): the TGI in [1] stood at 33.2 µM; in assay [2], 30.3 µM; in [3], 33.7 µM; in [4] it was 27.1 µM; in [5], 36.8 µM; in [6], 35.8 µM. Further, the TGI is 41.9 µM in assay [7]; 31.8 µM in assay [8]; 41.4 µM in assay [9]; more than 100 µM in assay [10]; 65.6 µM in [11]; 38.6 µM in assay [12]. For the same compound, the TGI in [13] came out at 42.2 µM; in assay [14], 44.3 µM; in assay [15] it was 33 µM; in assay [16] it was 57.2 µM; in assay [17], 31.6 µM; in assay [18], 29.3 µM. Also, the TGI in assay [19] came to 38.4 µM; in [20] it was 40.9 µM.

Take `O=C(O)Cc1c(-c2ccc([N+](=O)[O-])cc2)c(=O)oc2cc(O)ccc12`: the TGI in assay [1] is 75.7 µM; in [2], more than 100 µM; in [3], 33.3 µM; in assay [4] it was more than 100 µM; in assay [5], more than 100 µM; in assay [6] it was 75.7 µM. In addition, the TGI is more than 100 µM in assay [7]; more than 100 µM in assay [8]; 50.7 µM in assay [9]; 93.9 µM in assay [10]; 61.7 µM in assay [11]; 83 µM in assay [12]. The TGI in assay [13] is 26.8 µM; in [14], 53.5 µM; in assay [15] it was more than 100 µM; in [16] it was more than 100 µM; in assay [17] it was 91.3 µM; in assay [18], 49.9 µM. In addition, the TGI is more than 100 µM in assay [19] and 74.1 µM in assay [20].

On to `O=[N+]([O-])c1c(F)c(F)c2c(c1F)Nc1ccccc1S2`, for which the TGI in [1] was 17.8 µM; in [2], 19.2 µM; in assay [3] it was 23.8 µM; in assay [4] it was 3.63 µM; in assay [5], 21.6 µM; in assay [6], 12.6 µM. Besides, the TGI in [7] turned out to be 6.28 µM; in [8] it was 27.3 µM; in assay [9] it was 4.75 µM; in [10], 14.4 µM; in assay [11] it was 27.2 µM; in assay [12], 16 µM. Moreover, the TGI came out at 6.57 µM in assay [13]; 19.8 µM in assay [14]; 8.88 µM in assay [15]; 7.13 µM in [16]; 10.9 µM in assay [17]; 34.2 µM in [18]. The TGI came out at 6 µM in assay [19] and 3.89 µM in assay [20].

As to `COc1c2cc(C(C)(C)C)cc1Cc1cccc(c1OCc1cccc([N+](=O)[O-])c1)Cc1cc(C(C)(C)C)cc(c1OC)Cc1cccc(c1OCc1cccc([N+](=O)[O-])c1)Cc1cc(C(C)(C)C)cc(c1OC)Cc1cccc(c1OCc1cccc([N+](=O)[O-])c1)C2`, the TGI in assay [1], in assay [2], in assay [3], in [4], in assay [5] and in assay [6] was more than 50 µM in each case. For the same compound, the TGI in assay [7], in [8], in [9], in assay [10], in [11] and in assay [12] was more than 50 µM in each case. Moreover, the TGI in assay [13], in [14], in assay [15], in [16], in assay [17] and in [18] was more than 50 µM in each case. Also, the TGI in assay [19] and in assay [20] was more than 50 µM each time.

In the case of `c1ccc(-c2nnc(-c3ccccn3)c3c2C[C@@H]2C[C@@H]4Cc5c(-c6ccccn6)nnc(-c6ccccn6)c5[C@@H]4[C@H]32)nc1`, the TGI in [1], in [2], in assay [3], in [4], in assay [5] and in assay [6] was more than 100 µM throughout. The TGI in assay [7] is more than 100 µM; in assay [8], more than 100 µM; in assay [9] it was more than 100 µM; in [10], more than 100 µM; in assay [11] it was more than 100 µM; in assay [12], 36.8 µM. Besides, the TGI in assay [13], in [14], in assay [15], in [16], in [17] and in [18] was more than 100 µM each time. The TGI in assay [19] and in assay [20] was more than 100 µM each time.

Regarding `O=c1c2ccccc2nc(-c2cc3c(cc2Cl)Sc2nccn2S3(=O)=O)n1-c1ccccc1`, the TGI in [1] is 27.5 µM; in assay [2] it was more than 100 µM; in [3], more than 100 µM; in [4] it was more than 100 µM; in [5] it was 94.6 µM; in [6] it was 33 µM. The TGI is 47.5 µM in [7]; more than 100 µM in assay [8]; 43.5 µM in [9]; 71.1 µM in assay [10]; 48.5 µM in assay [11]; 48 µM in assay [12]. The TGI is more than 100 µM in assay [13]; 34.2 µM in assay [14]; 36 µM in assay [15]; more than 100 µM in [16]; more than 100 µM in assay [17]; 52.9 µM in assay [18]. Moreover, the TGI in assay [19] is 22.2 µM; in [20], 44 µM.

Turning to `COC(=O)C1=C(C)NC(C)=C(C(=O)OC)C1c1ccccc1NO`, the TGI in assay [1], in [2], in assay [3], in assay [4], in assay [5] and in [6] was more than 100 µM throughout. Also, the TGI in assay [7], in assay [8], in [9], in assay [10], in assay [11] and in assay [12] was more than 100 µM throughout. In addition, the TGI in [13], in [14], in assay [15], in [16], in assay [17] and in assay [18] was more than 100 µM each time. Also, the TGI in [19] and in assay [20] was more than 100 µM each time.

As for `COC(=O)[C@H](Cc1ccccc1)NP(=O)(OCCC#N)OCC1OC(n2cc(C)c(=O)[nH]c2=O)CC1N=[N+]=[N-]` (stereo not given in full), the TGI in [1], in assay [2], in [3], in assay [4], in [5] and in [6] was more than 100 µM each time. The TGI in assay [7], in assay [8], in assay [9], in [10], in assay [11] and in [12] was more than 100 µM each time. Besides, the TGI in assay [13], in [14], in assay [15], in assay [16], in assay [17] and in assay [18] was more than 100 µM in each case. Moreover, the TGI in assay [19] and in [20] was more than 100 µM throughout.

Take `COC(=O)/C=C\COCC1C2CCC(=O)C21` (stereo not given): the TGI in assay [1], in assay [2], in assay [3], in assay [4], in [5] and in [6] was more than 25 µM in each case. For the same compound, the TGI in [7], in assay [8], in [9], in assay [10], in [11] and in assay [12] was more than 25 µM each time. In addition, the TGI is 20.7 µM in assay [13]; more than 25 µM in [14]; more than 25 µM in [15]; more than 25 µM in assay [16]; 7.83 µM in assay [17]; more than 25 µM in assay [18]. In addition, the TGI in assay [19] and in [20] was more than 25 µM throughout.
